The values that follow come from patent US7230020B2, “11β-hydroxysteroid dehydrogenase inhibitors” (priority 2003, dated 2007).

What is called inhibition is the drop in the measured response relative to a control, in per cent.

Structures are written as SMILES. Read-outs that look alike come from different tables or passages of the source.

The assay addresses T1, Human 11β HSD1 (Homo sapiens, UniProt P28845).
T1 construct: human hepatic microsomes were obtained from XenoTech, product H0610/Lot 0210078; tissue XenoTech H0610/Lot 0210078; host or cells: human liver (hepatic microsomes)
Briefly: biochemical. The class given is biochemical. To be noted: for inhibition at 10 µM: read-out: % inhibition of Human 11β HSD1 @10 μM typical sd ± 5% N = 2. The procedure:
Standard Operating Procedure for the 11β-Hydroxysteroid Dehydrogenase Type 1 cortisol Radioimmunoassay (11β HSD1 Cortisol RIA).
30 mM Tris-HCL, pH 7.2 containing 1 mM EDTA.
50 mM Tris-HCL, pH 8, containing 0.1 M NaCl and 0.1% gelatin.
Prepare 10 mM stock solutions in 100% DMSO at 100 times the required assay concentration. Dilute into assay buffer 1 in 25. Also dilute neat DMSO 1 in 25 into assay buffer for controls.
Dilute this 1 in 50 into assay buffer.
Prepare NADPH as a 1.8 mg/ml solution in assay buffer.
Mix these 3solutions 1:1:1 to make a solution of sufficient volume for 25 μl additions to each sample. Add 0.5 μCi tritiated cortisone per 25 μl and mix the solution well.
Dilute stock 20 mg/ml solution 1 in 100 with assay buffer.
Dilute stock antibody solution to 17 μg/ml in antibody binding buffer.
Make a 20 mg/ml solution in antibody binding buffer and chill on ice.
To a u-bottom polypropylene 96 well plate add: • 25 μl compound dilution or diluted DMSO to controls, NSB's and blanks • 10 μl 1 mM GA in DMSO (enzyme stop solution) to blanks • 25 μl substrate mixture to all samples • 50 μl diluted microsomes to all samples • Incubate plate for 30 min at 37° C. shaking p0 Add 10 μl enzyme stop solution to all wells except the blanks • Add 100 μl antibody solution to all wells except the NSB's, add antibody binding buffer to these wells • Incubate at 37° C. for 1 h • Chill plate on ice for 15 min • Add 50 μl/well charcoal solution and mix with an 8-channel pipette (4-5 aspirations) • Chill the plate on ice • Centrifuge at 4° C., 2000×g for 15 min • Transfer 100 μl supernatant into an Optiplate, also add 25 μl substrate mixture to 2 empty wells to indicate counting efficiency • Add 200 μl Microscint-40 to all wells and count on a Topcount Radioimmunoassay
The 11β HSD1 enzyme assay was carried out following the standard operating procedure described above in u-bottom polypropylene 96 well plates or 1.5 ml Eppendorf tubes as indicated for each experiment. Subsequent to stopping the enzyme reaction, 100 μl antibody prepared in buffer 3 unless otherwise indicated was added to test samples and 100 μl buffer 3 was added to the NSB samples. The samples were incubated for 1 hour at 37° C. and the chilled on ice for 15 mins. Dextran coated charcoal (50 μl/sample) prepared to the indicated concentration in buffer 3 was added and the samples were mixed (vortex for tubes and aspiration 5 times with an 8-channel pipette for 96 well plates) and chilled for a further 10 min. The samples were centrifuged at 2000×g for 15 min at 4° C. to pellet the charcoal. Aliquots of the supernatant (100 μl) were transferred to an Optiplate and counted on the Topcount in 150-200 μl Microscint 40. In some experiments, aliquots of supernatant were transferred to scintillation vials and counted on the Tricarb LSC in 5 ml Ultima Gold scintillant.

Where [1] appears, read: compound 10 μM, human hepatic microsomes, cortisone 175 nM, typical sd ± 5%, N = 2.

T1 sequence (P28845 whole entry): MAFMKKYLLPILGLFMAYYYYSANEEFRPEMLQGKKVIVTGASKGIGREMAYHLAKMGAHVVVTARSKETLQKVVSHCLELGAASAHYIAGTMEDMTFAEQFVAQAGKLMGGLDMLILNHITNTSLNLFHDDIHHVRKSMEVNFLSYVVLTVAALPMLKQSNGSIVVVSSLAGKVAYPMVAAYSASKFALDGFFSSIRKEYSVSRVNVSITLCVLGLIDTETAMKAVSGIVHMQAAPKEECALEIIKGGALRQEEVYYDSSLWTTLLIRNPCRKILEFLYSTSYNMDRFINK

For the compound `CC1(C)[C@@H](OC(=O)CCC(=O)O)CC[C@]2(C)[C@H]3C(=O)C=C4[C@@H]5C[C@@](C)(C(=O)O)CC[C@]5(C)CC[C@@]4(C)[C@]3(C)CC[C@@H]12` [carbenoxolone, Carbenoxolone, reference compound], the “times more active than is suggested by Barf et al. [14]” value (350 nM cortisone, 0.3% DMSO, RIA buffer (Buffer 3) (FIG. 23)) is on record as “about 5 times”. As to `CCCc1ccc(C(=O)Nc2ccc3sc(C)nc3c2)cc1` [compound 471], the inhibition at 10 µM stood at 53.7%.

For `CCCc1ccc(C(=O)N(C)c2ccc3sc(C)nc3c2)cc1` [compound 472], the inhibition at 10 µM is 71.4%. Still for that read-out and setting: in the case of `Cc1nc2cc(NC(=O)c3cc(Cl)cc(Cl)c3)ccc2s1` [compound 520] it was 43.5%; in that of `COc1ccc(S(=O)(=O)Nc2ccc(S(=O)(=O)Nc3cc(C)on3)cc2)cc1` [compound 555], 53%; in that of `COc1cccc(NC(=O)Nc2ccc(S(=O)(=O)Nc3cc(C)on3)cc2)c1` [compound 556], 46.2%. In the case of `CC(=O)Nc1ccc(S(=O)(=O)NNC(=O)CSc2ncnc3c(C)csc23)cc1` [compound 557], the inhibition at 10 µM worked out at 51.3%. `COc1ccc(S(=O)(=O)Nc2ccc(S(=O)(=O)Nc3nc(C)cc(C)n3)cc2)cc1OC` [compound 558]: the inhibition at 10 µM is 31.2%.

For the compound `CCCc1ccc(S(=O)(=O)N(CC2CCNCC2)S(=O)(=O)c2ccc(CCC)cc2)cc1` [compound 576], under setting [1], the inhibition at 10 µM was 47.7%. For `CCCc1ccc(S(=O)(=O)Nc2ccc(OC)nc2)cc1` [compound 577], the inhibition at 10 µM stood at 54.6%.

`CC(=O)Nc1ccc(S(=O)(=O)Nc2cc(C)on2)cc1` [compound 606]: the inhibition at 10 µM under setting [1] was determined as 22.1%. For `Cc1cc(NS(=O)(=O)c2ccc(NS(=O)(=O)c3ccc(Cl)cc3Cl)cc2)no1` [compound 644], the inhibition at 10 µM turned out to be 37.1%. Consider `CC(=O)Nc1ccc(S(=O)(=O)Nc2cc(C)on2)cc1Cl` [compound 645], for which the inhibition at 10 µM was determined as 42%. The same measure, in the same setting: in the case of `COc1ccc(S(=O)(=O)Nc2ccc(S(=O)(=O)NCCO)cc2)cc1` [compound 646] it was 48.5%; in that of `COc1ccc(S(=O)(=O)Nc2ccc(S(=O)(=O)NCCOS(=O)(=O)c3ccc(OC)cc3)cc2)cc1` [compound 647], 34.5%; in that of `COc1ccc(S(=O)(=O)Nc2ccc(S(=O)(=O)NCCO)cc2)cc1OC` [compound 649], 26.3%. The same measure, in the same setting: the result for `COc1cc(C)c(S(=O)(=O)Nc2ccc(S(=O)(=O)NCCOS(=O)(=O)c3c(C)cc(OC)c(C)c3C)cc2)c(C)c1C` [compound 652] reads 31.8%; that for `O=S(=O)(NCCO)c1ccc(NS(=O)(=O)c2ccc(Cl)cc2Cl)cc1` [compound 653], 36.4%. On the same count and under the same terms, in the case of `Cc1cc(NS(=O)(=O)c2ccc(N)c(Cl)c2)no1` [compound 654] it was 32.1%; in that of `CCCc1ccc(S(=O)(=O)NCc2ccccn2)cc1` [compound 702], 37.6%. With `Cc1cc(NS(=O)(=O)c2cc(Cl)ccc2Cl)no1` [compound 823], the inhibition at 10 µM stood at 42.9%. As for `Cc1cc(NS(=O)(=O)c2cccc(Cl)c2C)no1` [compound 825], the inhibition at 10 µM stood at 23.2%. Take `Cc1noc2ccc(NS(=O)(=O)c3cc(Cl)ccc3Cl)cc12` [compound 876]: the inhibition at 10 µM turned out to be 23.6%. The same measure, in the same setting: in the case of `CCCc1ccc(S(=O)(=O)Nc2ccc3oncc3c2)cc1` [compound 919] it was 25.4%. Still for that read-out and setting: in the case of `O=S(=O)(Nc1ccc2oncc2c1)c1cc(Cl)ccc1Cl` [compound 920] it was 27.5%; in that of `CC(=O)Nc1nsc2ccc(NS(=O)(=O)c3cccc(Cl)c3C)cc12` [compound 929], 31%; in that of `Cc1ccc2cc(NS(=O)(=O)c3cccc(Cl)c3C)ccc2n1` [compound 935], 20.7%.

As for `CCCc1ccc(S(=O)(=O)Nc2ccc3nc(C)ccc3c2)cc1` [compound 936], the inhibition at 10 µM turned out to be 42.3%. Turning to `Cc1ccc2cc(NS(=O)(=O)c3cc(Cl)ccc3Cl)ccc2n1` [compound 937], the inhibition at 10 µM was found to be 36.6%.
